# Experimental data as given in patent US20120053196A1, “Combination Treatment of Breast Cancer” (priority 2009, published 2012).
# How the values were obtained:
# [1] = test system: ERα+/PR− tumors; settings: follow-up period of 6 years, postmenopausal women; cited from earlier work
# [2] = test system: ERα positive breast cancer; settings: cited from earlier work
# [3] = test system: ERα; settings: MCF7 cells, five days, 10 μM Simvastatin, 100 nM Tamoxifen, or a combination of both, FIG. 14
# [4] = test system: stage II invasive breast cancer; assay: Randomized premenopausal cohort: two years of adjuvant tamoxifen vs control, recurrence free survival (Kaplan-Meier, log-rank) by HMGCR IHC status; assay type: in vivo, human; settings: for outcome of HMGCR positive and ER negative patients vs HMGCR negative and ER positive patients: tamoxifen treated cohort
# From the text: Between 1984 and 1991, 564 pre-menopausal women with primary breast cancer in the South and Southeast regions of Sweden were enrolled in a multi-centre clinical trial and randomly assigned to either two years of adjuvant tamoxifen (n=276) or a control group (n=288). […] The inclusion criteria were pre-menopausal patients, or patients younger than 50 years, with stage II (pT2 N0 M0, pT1-2 N1 M0) invasive breast cancer treated by modified mastectomy or breast conserving surgery with axillary lymph node dissection. Post-operative radiotherapy (50 Gy) was administered after breastconserving surgery and all lymph node-positive patients received locoregional radiotherapy. […] The study design is described in detail elsewhere (Rydén L et al, Eur J Cancer, 2005, 41(2): 256-64). Ethical permission was obtained from the Local Ethics Committees at Lund and Linköping Universities.
# Tissue blocks from 500 of the 564 patients could be retrieved for TMA-construction. All cases had been histopathologically re-evaluated on hematoxylin and eosin stained slides. TMA:s were constructed by sampling 2×0.6 mm cores per case from areas representative of invasive cancer, using an manual arraying device (MTA-1, Beecher Inc, WI, USA). […] IHC staining of ER and PR had been performed previously. In line with current clinical praxis, a cut-off at 10% positive nuclei was used to define hormone receptor positively.
# For statistical analyses, the cytoplasmic intensity (CI) level was evaluated, in line with what is described in Examples, Section 3 above. […] Two categories were defined: “HMGCR high” corresponding to CI=weak, moderate and strong and “HMGCR low” corresponding to CI=absent This classification of samples was used for RFS analysis according to the Kaplan-Meier estimator, and the log-rank test was used to compare survival in different strata. ER and PR negativity was defined as<10% positively staining nuclei, according to current clinical guidelines in Sweden. All statistical tests were two-sided, and p-values of<0.05 were considered significant. All calculations were made with the statistical package SPSS 17.0 (SPSS Inc. Illinois, USA).
# [5] = test system: breast cancer; settings: 5 years tamoxifen compared to no adjuvant treatment; cited from earlier work
# [6] = test system: HMGCR; settings: MCF7 cells, five days, 10 μM Simvastatin, 100 nM Tamoxifen, or a combination of both, FIG. 14
# [7] = test system: HMGCR mRNA; assay: qRT-PCR of HMGCR mRNA levels in MCF7 cells after Simvastatin/Tamoxifen treatment; assay type: cell-based; settings: five days, 10 μM Simvastatin or 100 nM Tamoxifen, FIG. 15
# Method: Total RNA was isolated using the mirVANA™ miRNA Isolation Kit (Ambion) and reverse transcribed using SuperScript II™ Reverse Transcriptase (Invitrogen) according to the manufacturer's instructions. […] Relative HMG-CoAR expression levels in breast cancer cell lines were calculated using the qBase real-time PCR relative quantification software with all samples normalized to 18s rRNA. Negative controls included a no template control and a no reverse transcriptase control. All qRT-PCR reactions were performed in triplicate.
smiles,measurement,setting,value
CC(C)(C#N)c1cc(Cn2cncn2)cc(C(C)(C)C#N)c1 [anastrozole],recurrence rate compared to patients treated with tamoxifen,[1],halved
CC/C(=C(\c1ccccc1)c1ccc(OCCN(C)C)cc1)c1ccccc1 [tamoxifen],fraction of patients who do not respond to tamoxifen treatment,[2],30-40%
same,ERα expression (Western blot),[3],no ERα expression
same,effect on RFS based on the HMGCR level,"[4]; ER negative tamoxifen treated subjects, FIG. 7a",positive effect on RFS
same,"RFS, HMGCR high category vs HMGCR low","[4]; ER positive tamoxifen treated subjects, FIG. 2a",significantly better RFS
same,effect of tamoxifen treatment on RFS,"[4]; HMGCR negative and ER negative subjects, FIG. 10b",no positive effect
same,survival upon tamoxifen treatment vs no adjuvant endocrine treatment,"[4]; HMGCR positive and ER negative subjects, FIG. 9a",improved survival
same,tamoxifen impact on survival (RFS),"[4]; HMGCR positive and PR negative subjects, FIG. 12, not statistically significant",trend of tamoxifen impact on survival
same,effect of tamoxifen treatment on RFS,"[4]; HMGCR positive or ER positive subjects, FIG. 10a",significantly positive effect
same,response to tamoxifen treatment (RFS),"[4]; PR negative and HMGCR negative subjects, FIG. 11b",no response
same,response to tamoxifen treatment (RFS),"[4]; PR positive and HMGCR positive subjects, FIG. 11a",significant response
same,RFS associated with HMGCR expression,"[4]; lymph node positive patients who received tamoxifen, FIG. 4a",improved RFS
same,survival of HMGCR positive subjects,"[4]; node negative subgroups treated with tamoxifen, FIGS. 4b and 5b, too few patients for significance",trend of better survival
same,outcome of HMGCR positive and ER negative patients vs HMGCR negative and ER positive patients,"[4]; node positive subjects, FIG. 6a",better outcome
same,"recurrence free survival (RFS), HMGCR high category vs HMGCR low category","[4]; patients treated with adjuvant tamoxifen, FIG. 1a",significantly better RFS
same,survival upon tamoxifen treatment vs no adjuvant endocrine treatment,"[4]; patients with HMGCR high tumors, irrespective of ER status, FIG. 8a",significantly improved survival
same,survival upon tamoxifen treatment vs no adjuvant endocrine treatment,"[4]; patients with HMGCR low tumors, irrespective of ER status, FIG. 8b",no impact on survival
same,outcome of HMGCR positive and ER negative patients vs HMGCR negative and ER positive patients,[4]; FIG. 3a,better outcome
same,reduction in breast cancer specific mortality,[5],34%
same,reduction in disease recurrence,[5],41%
same,HMGCR expression (Western blot),[6],slight HMGCR expression
same,HMGCR levels of mRNA after treatment,[7],slight increase
